# Measured values as given in patent publication US20240307374A1, “FORMULATION OF FURIN INHIBITOR FOR INHALATION” (BP ASSET V, INC., priority 2021, published 2024).
# Marks after values point to notes of the source that are not given here.
# Columns and labels:
# Format in all cases: physicochemical
# [1] = DVS (dynamic vapor sorption) moisture uptake; details: XRPD before and after DVS
# Protocol: (FIG. 5). Sample weight decreased rapidly when humidity decreased from 10% to 0%, which might be caused by loss of crystalline water.
# DVS was measured via a SMS (Surface Measurement Systems) DVS Intrinsic.
# Grinding stability = details: ~30 mg ground manually in a mortar for about 5 minutes
# [2] = Equilibrium solubility in pH buffers (3.0-8.0), 20% captisol and water; details: 24 hrs; for S: solubility: RT
# Protocol: Additional solids were added into the sample to generate suspension if clear solution obtained. The suspension was equilibrated via stirring (1000 rpm). The suspension was centrifuged to obtain precipitate and supernatants.
# Solubility and pH were tested for the supernatants after filtration, and isolated precipitate was tested by XRPD.
# (§1) • 1. pH=3.0 buffer (50 mM HCl+KCl): Weigh 365.39 mg KCl into a 100 mL volumetric flask (VF), and add 0.1 mL 1M HCl into the VF, and dilute to volume with water. • 2. pH=4.0 buffer (50 mM citrate): Weigh 56.74 mg citric acid and 60.18 mg trisodium citrate into a 10 mL volumetric flask, and dilute to volume with water. • 3. pH=5.0 buffer (50 mM citrate) Weigh 11.12 mg citric acid and 95.38 mg trisodium citrate into a 10 mL volumetric flask, and dilute to volume with water. • 4. pH=6.0 buffer (50 mM citrate) Weigh 11.04 mg citric acid and 130.2 mg trisodium citrate into a 10 mL volumetric flask, and dilute to volume with water. • 5. pH=6.0 buffer (50 mM phosphate) Weigh 8.7 mg Na2HPO4 and 52.6 mg NaH2PO4 into a 10 mL volumetric flask, and dilute to volume with water. • 6. pH=7.0 buffer (50 mM phosphate) Weigh 23.47 mg Na2HPO4 and 43.34 mg NaH2PO4into a 10 mL volumetric flask, and dilute to volume with water. • 7. pH=8.0 buffer (50 mM phosphate) Weigh 31.64 mg Na2HPO4 and 67.18 mg NaH2PO4into a 10 mL volumetric flask, and dilute to volume with water.
# [3] = Equilibrium solubility in pH buffers (pH 4.0-6.0) with pH adjustment; details: for S: solubility: RT, with pH adjustment; for pH before adjustment (in brackets): 24 hours
# Protocol: In details, ˜5 mg of solids were suspended into 1 mL of each medium with dosing conc. at ˜5 mg/mL. Additional solids were added into the sample to generate suspension if clear solution was obtained. The suspension was equilibrated via stirring (1000 rpm) for 24 hours. The pH of the suspension was adjusted when the final pH shifted above 0.3, and the samples were stirred for another 1.5 hours after pH adjustment. The suspension was centrifuged to obtain precipitate and supernatants. Solubility, purity and pH were tested for the supernatants after filtration, and isolated precipitate was tested by XRPD.
# as §1
# [4] = pH = 3.0 buffer (50 mM HCl + KCl)
# [5] = pH = 4.0 buffer (50 mM citrate)
# [6] = pH = 5.0 buffer (50 mM citrate)
# [7] = pH = 6.0 buffer (50 mM citrate)
# [8] = pH = 7.0 buffer (50 mM phosphate)
# [9] = pH = 8.0 buffer (50 mM phosphate)
# [10] = pH = 6.0 buffer (50 mM phosphate)
smiles,measurement,setting,value
CC(=O)NCC1CCN(Cc2cc(Oc3ccc(N4CCN(CCC(=O)O)CC4)nc3)nc(-c3cc(Cl)cc(Cl)c3)c2)CC1 [Sulfate Type B],form change after DVS test (XRPD),[1],Two additional peaks
same,crystallinity after grinding (XRPD),Grinding stability,decreased after grinding
same,pH of supernatant (final pH),"[2]; 20% Captisol (pH = 5.0, w/v)",2.6
same,S: solubility,"[2]; 20% Captisol (pH = 5.0, w/v)",>44.5^1 mg/mL
same,FC: form change (XRPD of precipitate),[2]; H2O,N (N: solid form not changed)
same,pH of supernatant (final pH),[2]; H2O,2.4
same,S: solubility,[2]; H2O,1.97 mg/mL
same,FC: form change (XRPD of precipitate),[2]; [4],1 (1/2/3/4/5: new Form 1/2/3/4/5)
same,pH of supernatant (final pH),[2]; [4],2.3
same,S: solubility,[2]; [4],8.00 mg/mL
same,FC: form change (XRPD of precipitate),[2]; [5],Low (Low: low crystallinity)
same,pH of supernatant (final pH),[2]; [5],3.8
same,S: solubility,[2]; [5],2.33 mg/mL
same,FC: form change (XRPD of precipitate),[2]; [6],3 (1/2/3/4/5: new Form 1/2/3/4/5)
same,pH of supernatant (final pH),[2]; [6],4.4
same,S: solubility,[2]; [6],1.66* mg/mL
same,FC: form change (XRPD of precipitate),[2]; [7],3 (1/2/3/4/5: new Form 1/2/3/4/5)
same,pH of supernatant (final pH),[2]; [7],4.3
same,S: solubility,[2]; [7],0.93* mg/mL
same,FC: form change (XRPD of precipitate),[2]; [8],2 (1/2/3/4/5: new Form 1/2/3/4/5)
same,pH of supernatant (final pH),[2]; [8],5.6
same,S: solubility,[2]; [8],0.61* mg/mL
same,pH of supernatant (final pH),[2]; [9],6.9
same,S: solubility,[2]; [9],0.04* mg/mL
same,Area % (purity of supernatant),[3]; [5],99.2 Area %
same,FC: form change (XRPD of precipitate),[3]; [5],Low (Low; low crystallinity)
same,"pH (final, after adjustment where adjusted)",[3]; [5],3.9
same,S: solubility,[3]; [5],2.29 mg/mL
same,Area % (purity of supernatant),[3]; [6],99.4 Area %
same,FC: form change (XRPD of precipitate),[3]; [6],3 (3/4/6/7/8: new Form 3/4/6/7/8)
same,"pH (final, after adjustment where adjusted)",[3]; [6],5.0*
same,pH before adjustment (in brackets),[3]; [6],(4.5)
same,S: solubility,[3]; [6],6.82^# mg/mL
same,Area % (purity of supernatant),[3]; [7],92.6 Area %
same,FC: form change (XRPD of precipitate),[3]; [7],6 (3/4/6/7/8: new Form 3/4/6/7/8)
same,"pH (final, after adjustment where adjusted)",[3]; [7],6.1*
same,pH before adjustment (in brackets),[3]; [7],(4.4)
same,S: solubility,[3]; [7],0.07 mg/mL
same,Area % (purity of supernatant),[3]; [10],88.2 Area %
same,"pH (final, after adjustment where adjusted)",[3]; [10],6.2*
same,pH before adjustment (in brackets),[3]; [10],(3.0)
same,S: solubility,[3]; [10],0.06 mg/mL
